Test results reported in PMC6211257, “Synthesis and cytotoxic activities of novel copper and silver complexes of 1,3-diaryltriazene-substituted sulfonamides” (Journal of Enzyme Inhibition and Medicinal Chemistry, 2018).
Values joined by “and” are separate entries in the source; they are usually repeats but may differ in a detail not shown here. Identical values can stand only once. Like-named read-outs stand apart in the source and are kept apart here.

Experiments:
[1] = tested on: endometrial adenocarcinoma (ECC-1) cells; experiment: MTT cytotoxicity assay, ECC-1; type: cell-based, human; details: 48 h, means of three independent experiments
Excerpt: (§1) The cells studied were obtained from the American Type Culture Collection (ATCC, Manassas, VA), and included human colorectal adenocarcinoma (DLD-1), cervix carcinoma (HeLa), breast adenocarcinoma (MDA-MB-231), colon adenocarcinoma (HT-29), endometrial adenocarcinoma (ECC-1), prostate cancer (DU-145 and PC-3), normal embryonic kidney (HEK-293), normal prostate epithelium (PNT-1A), and normal retinal pigment epithelium (ARPE-19) cells. As recommended by ATCC, cells were subjected to propagation using DMEM-F12 and RPMI-1640 media, with supplements 10% fetal bovine serum, L-glutamine (2 mM), penicillin (100 U/mL) and streptomycin ([…]) in a humidified atmosphere (5% CO2) at 37 °C. When the cultures reached 70–80% confluence, the cells were harvested using 0.25% trypsin (Sigma).
(§2) Cytotoxic activities were based on the reduction of (3–(4,5-dimethylthiazol-2-yl)-2,5-diphenyltetrazolium bromide) (MTT) by mitochondrial dehydrogenase of viable cells to give a blue formazan product which can be measured spectrophotometrically by UV–Vis measurements. MTT colorimetric assays were performed using 96 well plates. The cells were seeded in a 96 well plate at concentration 5.0 × 10^4 cells/well and incubated at 37 °C for 24 h. After treatment with various concentrations of the test compound (1, 5, 10, 25, 50, 100 and 200 μM), the cells were incubated for an additional 48 h at 37 °C. After incubation, the medium was removed, and the cells in each well were incubated with 100 μL MTT solution (5 mg/mL) for 4 h at 37 °C. MTT solutions were then discarded, and 100 μL DMSO were added to dissolve insoluble formazan crystals. Optical densities were measured at 570 nm (Varioskan Flash Multimode Reader, Thermo, Waltham, MA). Data were obtained from triplicate wells. Cytotoxic effects were determined in reference to negative controls (vehicle treated cells). Cytotoxicity was expressed as the mean percentage increase relative to the unexposed control (mean ± SD). All statistical analyses were performed using SPSS package program for Windows (Version 20, Chicago, IL). Control values were set to 0% cytotoxicity. Cytotoxicity data, where appropriate, were fitted to sigmoidal curves and a four-parameter logistic model was used to calculate the IC50 values, the concentration of material causing 50% inhibition, compared to the untreated controls. 5-Fluorouracil (5-FU) was also used as a control agent[21]^,[22].

[2] = tested on: normal embryonic kidney (HEK-293) cells; experiment: MTT cytotoxicity assay, HEK-293; type: cell-based, human; details: 48 h, means of three independent experiments
Excerpt: as §1, §2

[3] = tested on: colon adenocarcinoma (HT-29) cells; experiment: MTT cytotoxicity assay, HT-29; type: cell-based, human; details: 48 h, means of three independent experiments
Excerpt: as §1, §2

[4] = tested on: cervix carcinoma (HeLa) cells; experiment: MTT cytotoxicity assay, HeLa; type: cell-based, human; details: for IC50: cancer cell, MTT, 48 h, means of three independent experiments
Excerpt: as §1, §2

[5] = tested on: normal prostate epithelium (PNT-1A) cells; experiment: MTT cytotoxicity assay, PNT-1A; type: cell-based, human; details: normal cell, 48 h, means of three independent experiments, read-out: IC50 PNT-1A
Excerpt: as §1, §2

[6] = tested on: breast adenocarcinoma (MDA-MB-231) cells; experiment: MTT cytotoxicity assay, MDA-MB-231; type: cell-based, human; details: 48 h, means of three independent experiments
Excerpt: as §1, §2

[7] = tested on: human colorectal adenocarcinoma (DLD-1) cells; experiment: MTT cytotoxicity assay, DLD-1; type: cell-based; details: 48 h, means of three independent experiments
Excerpt: as §1, §2

[8] = tested on: normal retinal pigment epithelium (ARPE-19) cells; experiment: MTT cytotoxicity assay, ARPE-19; type: cell-based, human; details: 48 h, means of three independent experiments
Excerpt: as §1, §2

[9] = tested on: prostate cancer (PC-3) cells; experiment: MTT cytotoxicity assay, PC-3; type: cell-based, human; details: 48 h, means of three independent experiments
Excerpt: as §1, §2

[10] = tested on: prostate cancer (DU-145) cells; experiment: MTT cytotoxicity assay, DU-145; type: cell-based, human; details: cancer cell, MTT, 48 h, means of three independent experiments, read-out: IC50 DU-145
Excerpt: as §1, §2

[11] = Homo sapiens, ECC-1, cancer cell
[12] = Homo sapiens, HEK293, normal cell
[13] = Homo sapiens, HT-29, cancer cell
[14] = Homo sapiens, MDA-MB-231, cancer cell
[15] = Homo sapiens, DLD-1, cancer cell
[16] = Homo sapiens, ARPE-19, normal cell
[17] = Homo sapiens, PC-3, cancer cell

SMILES	IC50 ([1]; cancer cell) [µM]	IC50 ([2]; normal cell) [µM]	IC50 ([3]; cancer cell) [µM]	IC50 [4]	IC50 [5] [µM]	IC50 ([6]; cancer cell) [µM]	IC50 ([7]; cancer cell) [µM]	IC50 ([8]; normal cell) [µM]	IC50 ([9]; cancer cell) [µM]	IC50 [10] [µM]	IC50 [1, 11] [µM]	IC50 [2, 12] [µM]	IC50 [3, 13] [µM]	IC50 ([4]; Homo sapiens, HeLa) [µM]	IC50 ([5]; Homo sapiens, PNT1A) [µM]	IC50 [6, 14] [µM]	IC50 [7, 15] [µM]	IC50 [8, 16] [µM]	IC50 [9, 17] [µM]	IC50 ([10]; Homo sapiens, DU-145) [µM]	further results
CC(=O)[O][Cu-]1([O]C(C)=O)[N](c2cccc(S(N)(=O)=O)c2)N=[N+]1c1cc(C)cc(C)c1 [Compound L5-Cu]	97.6 ± 9.7	36.3 ± 3.6	84.4 ± 8.4	15.2 ± 1 µM	46.4 ± 4.6	26 ± 2.5	58.8 ± 3.9	84.3 ± 8.4	79.2 ± 8.5	32.4 ± 3.2											
CC(=O)[O][Ag][N](N=Nc1cc(C)cc(C)c1)c1cccc(S(N)(=O)=O)c1 [Compound L5-Ag]	136 ± 13.5	30.5 ± 4.5	162 ± 16.1	9.61 µM and 9.6 µM	111 ± 11	148 ± 19.5	111 ± 9	109 ± 11	112 ± 13.4	100 ± 10.1											
COc1ccc(N=N[N]([Ag][O]C(C)=O)c2cccc(S(N)(=O)=O)c2)cc1 [Compound L2-Ag]	29.1	17.8 ± 1.7	24.9 ± 2.5	2.8 ± 0.1 µM	17.5 ± 17.5	30.3 ± 3	31.6	22 ± 10.2	28.2	18.6											fold increased potency than the reference drug 5-FU ([4]; HeLa cells, ratio of IC50 values): 6.84 fold
CC(=O)[O][Ag][N](N=Nc1ccc(F)cc1)c1cccc(S(N)(=O)=O)c1 [Compound L1-Ag]	207 ± 25.6	> 300	186 ± 16.5	> 300 µM	210 ± 20.9	96.8 ± 9.6	279 ± 12.9	> 300		137 ± 16.5											
COc1ccc([N+]2=N[N](c3cccc(S(N)(=O)=O)c3)[Cu-]2([O]C(C)=O)[O]C(C)=O)cc1 [Compound L2-Cu]	39.5 ± 2.5	159 ± 19.4	94.9 ± 9.4	2.08 µM and 2.1 µM	95.1 ± 11.1	50 ± 2.4	42.7 ± 3.3	132 ± 15.6	65.3 ± 8.5	116 ± 14.6											
Cc1cc(C)cc(NN=Nc2cccc(S(N)(=O)=O)c2)c1 [Compound L5, 3-(3-(3,5-dimethylphenyl)triaz-1-en-1-yl)benzenesulfonamide]											132 ± 13.1	103 ± 10.2	112 ± 16.5	65.1 ± 4.5	177 ± 20.5	144 ± 18.6	224 ± 12.4	> 300	131 ± 12.4	97.8 ± 9.7	
CC(=O)[O][Ag][N](N=Nc1ccc(C(=O)O)cc1)c1cccc(S(N)(=O)=O)c1 [Compound L3-Ag]	16.2 ± 1.6	9.9 ± 0.9	10.1 ± 3.1	3.4 ± 0.2 µM	9.2 ± 0.9	9.8 ± 0.9	3.3 ± 0.3	9.5 ± 0.9	5.1 ± 0.5	4.8 ± 0.4											
NS(=O)(=O)c1cccc(N/N=N/c2ccc(C(=O)O)cc2)c1 [Compound L3, 4–(3–(3-sulfamoylphenyl)triaz-2-en-1-yl) benzoic acide]											197 ± 23.5	> 300	> 300	> 300	> 300	> 300	> 300	> 300	> 300	186 ± 20.6	
O=c1[nH]cc(F)c(=O)[nH]1 [Compound 5-FU, 5-Fluorouracil, reference compound]				19.2 ± 1.2 µM							30.6 ± 3.5	65.3 ± 8.6	24.2 ± 2.4	19.2	142 ± 18.6	22.4 ± 2.5	50.2 ± 21	75.3 ± 7.5	45.5 ± 4.5	37.3 ± 5.8	
CC(=O)[O][Cu-]1([O]C(C)=O)[N](c2cccc(S(N)(=O)=O)c2)N=[N+]1c1ccc(F)cc1 [Compound L1-Cu]	26.2 ± 2.6	68.8 ± 8.7	199 ± 24.3	5.02 µM and 5 µM	76.5 ± 8.5	117 ± 14.2	47.1 ± 4.7	119 ± 13.5	102 ± 10.2	105 ± 13.5											
COc1ccc(N=N[N]([Ag][O]C(C)=O)c2cccc(S(N)(=O)=O)c2)cc1OC [Compound L4-Ag]	104 ± 10.3	5.5 ± 0.6	241 ± 28.5	139 ± 28 µM	139 ± 16.5	> 300	173 ± 10.3	285 ± 30.5	137 ± 15.8	237 ± 28.5											
COc1ccc(/N=N/Nc2cccc(S(N)(=O)=O)c2)cc1 [Compound L2, 3–(3-(4-methoxyphenyl)triaz-1-en-1-yl)]											> 300	146 ± 13.4	265 ± 30	768 ± 6.5	> 300	144 ± 2.4	223 ± 8.3	> 300	171 ± 20.5	154 ± 25.6	
CC(=O)[O][Cu-]1([O]C(C)=O)[N](c2cccc(S(N)(=O)=O)c2)N=[N+]1c1ccc(C(=O)O)cc1 [Compound L3-Cu]	362 ± 38.1	135 ± 15.6	205 ± 20.3	63.9 ± 4.3 µM	120 ± 13.5	48.3 ± 2.5	65.2 ± 2.5	> 300	196 ± 22.6	58.3 ± 6.4											
